Data as given in patent publication US20090304600A1 (priority 2008, published 2009).
Read-outs that look alike come from different tables or passages of the source.

Legend:
[1] = cited from earlier work
[2] = patients with normal renal function; cited from earlier work
[3] = cited from earlier work; remark: listed apart in the source
[4] = ESRD patient, cited from earlier work

SMILES | water solubility relative to calcium phosphate [1] | solubility in the dialysis solution (hemodialysis dialysate) | solubility in peritoneal dialysis solutions (peritoneal dialysis solutions) | serum half-life [2] [h] | elimination route ([3]; anuric dogs) | half-life ([3]; anuric dogs) [h] | metabolic clearance rate ([3]; dogs, during renal failure) | volume of distribution ([3]; dogs, during renal failure) | distribution ([3]; normal and anuric mongrel dogs) | cleared renally ([3]; normal dogs) [%] | half-life ([3]; normal dogs) [h] | serum sodium thiosulfate concentration ([4]; 15 min after infusion) [µg/mL] | serum sodium thiosulfate concentration ([4]; after a 4-h hemodialysis session) [µg/mL] | serum sodium thiosulfate concentration ([4]; before hemodialysis (52 h after administration)) [µg/mL] | calculated half life [4] [h] | solubility in water [1]
O=S([O-])([O-])=S.[Ca+2] [Calcium thiosulfate] | many folds more water soluble than calcium phosphate |  |  |  |  |  |  |  |  |  |  |  |  |  |  | 
O=S([O-])([O-])=S.[Na+].[Na+] [sodium thiosulfate] |  | soluble | soluble | 0.25 | primarily through the biliary system | 3.98 | decreased drastically | doubled | distributes rapidly throughout the extracellular space | > 98 | 0.78 | 110 | 0 | 1.2 | 7.97 | soluble in water
